Some test systems named below: CCRF-CEM leukemia; K-562 leukemia; MALME-3M melanoma; MCF7 breast; MDA-MB-435; MOLT-4 leukemia; NCI-H226 lung; NCI-H460 lung; NCI/ADR-RES ovarian; OVCAR-3 ovarian; OVCAR-4 ovarian; RPMI-8226 leukemia; RXF 393 renal; SK-MEL-2 melanoma; SN12C renal; SNB-75 CNS; T-47D breast; TK-10 renal; UACC-62 melanoma; HOP-92 NSCLC.
Assay in all cases: inhibition of tumour cell growth, NCI panel, 48 h

Each structure is given as a SMILES string.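 Test compounds were applied to cells in 96-well plates for 48 hours at 5 doses. At the TGI there is no net growth.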 A value given as a limit tells only on which side of the number the result lay.

`CSc1c(C(=O)Nc2ccccc2)c(N)n(N)c(=O)c1C#N`: the TGI with CCRF-CEM leukemia, with K-562 leukemia, in the assay on MALME-3M melanoma, in the assay with MCF7 breast, in the assay on MDA-MB-435 and in the assay with MOLT-4 leukemia was more than 100 µM throughout. In addition, the TGI with NCI-H226 lung, in the assay on NCI-H460 lung, in the assay on NCI/ADR-RES ovarian, in the assay with OVCAR-3 ovarian, in the assay on OVCAR-4 ovarian and in the assay on RPMI-8226 leukemia was more than 100 µM in each case. Also, the TGI with RXF 393 renal, in the assay with SK-MEL-2 melanoma, in the assay with SN12C renal, in the assay with SNB-75 CNS, in the assay with T-47D breast and with TK-10 renal was more than 100 µM each time. The molecule further returned a TGI with UACC-62 melanoma of more than 100 µM.
As to `O=C(CSc1nnc(-c2ccccn2)s1)N/N=C/c1ccccc1`, the TGI in the assay on CCRF-CEM leukemia, in the assay with HOP-92 NSCLC, with K-562 leukemia, with MALME-3M melanoma, in the assay with MCF7 breast and in the assay on MDA-MB-435 was more than 100 µM throughout. Further, the TGI in the assay on MOLT-4 leukemia, in the assay on NCI-H226 lung, in the assay with NCI-H460 lung, in the assay with NCI/ADR-RES ovarian, with OVCAR-3 ovarian and with OVCAR-4 ovarian was more than 100 µM throughout. Moreover, the TGI was more than 100 µM in the assay with SK-MEL-2 melanoma; more than 100 µM in the assay with SN12C renal; 17 µM in the assay with SNB-75 CNS; more than 100 µM in the assay on T-47D breast; more than 100 µM in the assay with TK-10 renal; more than 100 µM in the assay on UACC-62 melanoma.
With `CC(C)(C)C1=C(Br)C(C(C)(C)C)OP1(=O)O` (stereo unspecified), the TGI in the assay with HOP-92 NSCLC, in the assay on K-562 leukemia, in the assay with MALME-3M melanoma, in the assay with MCF7 breast, with MDA-MB-435 and in the assay on NCI-H226 lung was more than 100 µM each time. Further, the TGI in the assay with NCI-H460 lung, in the assay on NCI/ADR-RES ovarian, in the assay with OVCAR-3 ovarian, in the assay with OVCAR-4 ovarian, in the assay on SK-MEL-2 melanoma and in the assay on SN12C renal was more than 100 µM throughout. In addition, the TGI in the assay on SNB-75 CNS, in the assay on T-47D breast, in the assay with TK-10 renal and in the assay with UACC-62 melanoma was more than 100 µM in each case.
With `Nc1ccccc1CCN1CCN(CCCc2ccccc2)CC1`, the TGI was more than 100 µM in the assay with CCRF-CEM leukemia; more than 100 µM in the assay on K-562 leukemia; 31.6 µM in the assay with MALME-3M melanoma; more than 100 µM in the assay with MCF7 breast; more than 100 µM in the assay on MDA-MB-435; more than 100 µM in the assay on MOLT-4 leukemia. Further, the TGI with NCI-H226 lung was more than 100 µM; with NCI-H460 lung it was more than 100 µM; in the assay on NCI/ADR-RES ovarian, more than 100 µM; with OVCAR-3 ovarian, more than 100 µM; in the assay on OVCAR-4 ovarian, more than 100 µM; in the assay on RPMI-8226 leukemia, 75.5 µM. In addition, the TGI was more than 100 µM in the assay on SK-MEL-2 melanoma; more than 100 µM with SN12C renal; 53.3 µM with T-47D breast; more than 100 µM in the assay with TK-10 renal; more than 100 µM in the assay on UACC-62 melanoma.
As to `CN(/N=C/c1ccc(C(=O)O)cc1)C1=NCCCCN1`, the TGI in the assay with CCRF-CEM leukemia, in the assay on K-562 leukemia, with MALME-3M melanoma, in the assay with MCF7 breast, in the assay on MDA-MB-435 and in the assay on MOLT-4 leukemia was more than 100 µM each time. Moreover, the TGI with NCI-H226 lung, in the assay with NCI-H460 lung, with NCI/ADR-RES ovarian, in the assay with OVCAR-3 ovarian, with OVCAR-4 ovarian and in the assay with RPMI-8226 leukemia was more than 100 µM throughout. In addition, the TGI in the assay with SN12C renal, with SNB-75 CNS, in the assay with T-47D breast and with UACC-62 melanoma was more than 100 µM in each case.
On to `COC(=O)C1Cc2cc3c(cc2C1=O)CCC3` (stereo unspecified), for which the TGI with CCRF-CEM leukemia, in the assay on K-562 leukemia, in the assay on MALME-3M melanoma, in the assay on MCF7 breast, in the assay with MDA-MB-435 and with MOLT-4 leukemia was more than 100 µM each time. The TGI in the assay on NCI-H226 lung, with NCI-H460 lung, in the assay on NCI/ADR-RES ovarian, in the assay with OVCAR-3 ovarian, in the assay with OVCAR-4 ovarian and in the assay on RPMI-8226 leukemia was more than 100 µM in each case. The TGI with SK-MEL-2 melanoma, in the assay with SN12C renal, in the assay with SNB-75 CNS, with T-47D breast, in the assay with TK-10 renal and with UACC-62 melanoma was more than 100 µM each time.
For `CCCCC1(NN=C2CCCCC2)C(=O)N(c2ccccc2)N(c2ccccc2)C1=O`, the TGI in the assay on CCRF-CEM leukemia is 40.7 µM; with K-562 leukemia it was 64.9 µM; in the assay with MCF7 breast it was more than 100 µM; with MDA-MB-435 it was more than 100 µM; with MOLT-4 leukemia, 66 µM; in the assay on NCI-H460 lung it was more than 100 µM. For the same molecule, the TGI in the assay on NCI/ADR-RES ovarian, in the assay with OVCAR-3 ovarian, in the assay with OVCAR-4 ovarian, in the assay on RPMI-8226 leukemia, with RXF 393 renal and in the assay on SN12C renal was more than 100 µM in each case. For the same molecule, the TGI in the assay with SNB-75 CNS, in the assay with T-47D breast, with TK-10 renal and in the assay with UACC-62 melanoma was more than 100 µM throughout.
Consider `CNc1ncccc1Nc1cc(=O)n2c3cccnc3n(C)c2c1`, for which the TGI with CCRF-CEM leukemia, in the assay on K-562 leukemia, in the assay on MCF7 breast, with MDA-MB-435, in the assay on MOLT-4 leukemia and with NCI-H226 lung was more than 100 µM throughout. Also, the TGI is more than 100 µM with NCI-H460 lung; more than 100 µM with NCI/ADR-RES ovarian; more than 100 µM with OVCAR-3 ovarian; more than 100 µM with OVCAR-4 ovarian; more than 100 µM in the assay on RPMI-8226 leukemia; 80.8 µM in the assay with RXF 393 renal. The TGI is 78.1 µM in the assay with SNB-75 CNS, more than 100 µM in the assay on T-47D breast, more than 100 µM with TK-10 renal and more than 100 µM in the assay with UACC-62 melanoma.

Values taken from PubChem BioAssay (NCI).
